Test results reported in paper PMC9090415, “Discovery of small molecule inhibitors of Plasmodium falciparum apicoplast DNA polymerase” (Journal of Enzyme Inhibition and Medicinal Chemistry, 2022).

Molecular target: P. falciparum apicoplast DNA polymerase (Pf-apPOL) (Plasmodium falciparum, UniProt Q8ILY1)
Test: Fluorescence-based high-throughput DNA polymerase assay (molecular beacon), primary screen and dose-response
Type: biochemical
Settings: for DNA Pol: 90 min, 10 µM; for % inhibition Apo pol 10' 2.5 / % inhibition Apo pol 10' 5 / % inhibition Apo pol 10' 10 / % inhibition Apo pol 10' 20 / % inhibition Apo pol 10' 40 / % inhibition Apo pol 10' 80: read at 10'; for % inhibition Apol 90' 2.5 / % inhibition Apol 90' 5 / % inhibition Apol 90' 10 / % inhibition Apol 90' 20 / % inhibition Apol 90' 40 / % inhibition Apol 90' 80 / % inhibition ApPOL 90' 2.5 / % inhibition ApPOL 90' 5 / % inhibition ApPOL 90' 10 / % inhibition ApPOL 90' 20 / % inhibition ApPOL 90' 40 / % inhibition ApPOL 90' 80: read at 90'; for % inhibition apPOL 180' 2.5 / % inhibition apPOL 180' 5 / % inhibition apPOL 180' 10 / % inhibition apPOL 180' 20 / % inhibition apPOL 180' 40 / % inhibition apPOL 180' 80: read at 180'; for % inhibition Apo pol 5' 2.5 / % inhibition Apo pol 5' 5 / % inhibition Apo pol 5' 10 / % inhibition Apo pol 5' 20 / % inhibition Apo pol 5' 40 / % inhibition Apo pol 5' 80: read at 5'; for % inhibition Apol 40' 2.5 / % inhibition Apol 40' 5 / % inhibition Apol 40' 10 / % inhibition Apol 40' 20 / % inhibition Apol 40' 40 / % inhibition Apol 40' 80: read at 40'
Summary of the method: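 Single-point screening used 10 µM compound with 20 nM polymerase, 20 nM hairpin substrate and 6 µM dNTPs for 90 min at 25 °C. Confirmatory titrations (2.5–80 µM) followed fluorescence at three times, and IC50 was derived from a fit including a cooperativity term n.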

[1] = 186 hits, DNA Pol (screen value), unit not given
[2] = 'DNA Pol' (screen value), unit not given

Sequence of P. falciparum apicoplast DNA polymerase (Pf-apPOL) (Q8ILY1 entry or part of it): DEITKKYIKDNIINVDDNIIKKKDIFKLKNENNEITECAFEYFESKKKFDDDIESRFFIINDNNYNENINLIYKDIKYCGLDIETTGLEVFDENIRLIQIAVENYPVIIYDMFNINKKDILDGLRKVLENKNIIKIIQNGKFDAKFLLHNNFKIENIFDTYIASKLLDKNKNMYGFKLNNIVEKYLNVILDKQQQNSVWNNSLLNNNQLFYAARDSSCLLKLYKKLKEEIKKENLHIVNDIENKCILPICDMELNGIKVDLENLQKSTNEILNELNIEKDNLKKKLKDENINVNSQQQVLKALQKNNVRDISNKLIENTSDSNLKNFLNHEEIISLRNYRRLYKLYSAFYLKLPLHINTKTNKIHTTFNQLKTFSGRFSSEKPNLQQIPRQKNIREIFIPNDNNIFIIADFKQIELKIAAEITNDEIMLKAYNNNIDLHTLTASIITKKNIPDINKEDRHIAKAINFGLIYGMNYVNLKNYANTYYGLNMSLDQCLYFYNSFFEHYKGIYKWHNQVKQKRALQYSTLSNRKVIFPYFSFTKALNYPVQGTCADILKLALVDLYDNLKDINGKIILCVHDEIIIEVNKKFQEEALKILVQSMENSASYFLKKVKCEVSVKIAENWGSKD

CN(C)S(=O)(=O)Oc1ccc(-c2noc(-c3ccc(Oc4cc(Cl)cc(Cl)c4)o3)n2)cc1 [KU0263859]
DNA Pol ("DNA Pol" of the 186 hits list (screen value)): 81 | % inhibition Apo pol 10' (DRC-1, concentration 2.5): 3.819% | % inhibition Apo pol 10' (DRC-1, concentration 5): 17.153% | % inhibition Apo pol 10' (DRC-1, concentration 10): 39.7031% | % inhibition Apo pol 10' (DRC-1, concentration 20): 66.3992% | % inhibition Apo pol 10' (DRC-1, concentration 40): 79.6706% | % inhibition Apo pol 10' (DRC-1, concentration 80): 81.4369% | % inhibition Apol 90' (DRC-1, concentration 2.5): 1.99% | % inhibition Apol 90' (DRC-1, concentration 5): 7.942% | % inhibition Apol 90' (DRC-1, concentration 10): 26.2984% | % inhibition Apol 90' (DRC-1, concentration 20): 55.9318% | % inhibition Apol 90' (DRC-1, concentration 40): 71.2326% | % inhibition Apol 90' (DRC-1, concentration 80): 82.3525% | % inhibition apPOL 180' (DRC-1, concentration 2.5): 0.6453% | % inhibition apPOL 180' (DRC-1, concentration 5): 1.378% | % inhibition apPOL 180' (DRC-1, concentration 10): 13.3092% | % inhibition apPOL 180' (DRC-1, concentration 20): 44.3234% | % inhibition apPOL 180' (DRC-1, concentration 40): 58.5688% | % inhibition apPOL 180' (DRC-1, concentration 80): 76.7438% | % inhibition Apo pol 5' (DRC-2, concentration 2.5): 2.6% | % inhibition Apo pol 5' (DRC-2, concentration 5): 18% | % inhibition Apo pol 5' (DRC-2, concentration 10): 34% | % inhibition Apo pol 5' (DRC-2, concentration 20): 47% | % inhibition Apo pol 5' (DRC-2, concentration 40): 47% | % inhibition Apo pol 5' (DRC-2, concentration 80): 46% | % inhibition Apol 40' (DRC-2, concentration 2.5): 3% | % inhibition Apol 40' (DRC-2, concentration 5): 16% | % inhibition Apol 40' (DRC-2, concentration 10): 36% | % inhibition Apol 40' (DRC-2, concentration 20): 57% | % inhibition Apol 40' (DRC-2, concentration 40): 65% | % inhibition Apol 40' (DRC-2, concentration 80): 68% | % inhibition ApPOL 90' (DRC-2, concentration 2.5): 0.164% | % inhibition ApPOL 90' (DRC-2, concentration 5): 12% | % inhibition ApPOL 90' (DRC-2, concentration 10): 32% | % inhibition ApPOL 90' (DRC-2, concentration 20): 56% | % inhibition ApPOL 90' (DRC-2, concentration 40): 67% | % inhibition ApPOL 90' (DRC-2, concentration 80): 73% | % inhibition apPOL 180' (DRC-2, concentration 2.5): -5.61% | % inhibition apPOL 180' (DRC-2, concentration 5): 5.64% | % inhibition apPOL 180' (DRC-2, concentration 10): 20% | % inhibition apPOL 180' (DRC-2, concentration 20): 47% | % inhibition apPOL 180' (DRC-2, concentration 40): 65% | % inhibition apPOL 180' (DRC-2, concentration 80): 76% | DNA Pol (primary screen value, DNA Pol): 81

Cc1nc(C)c2c(n1)N(CC1CCCCC1)C(=O)CC2 [KU0218606]
DNA Pol [1]: 50 | DNA Pol [2]: 50 | % inhibition Apo pol 10' 2.5 (DRC-1, concentration 2.5): 34.0428% | % inhibition Apo pol 10' 5 (DRC-1, concentration 5): 39.9001% | % inhibition Apo pol 10' 10 (DRC-1, concentration 10): 47.3749% | % inhibition Apo pol 10' 20 (DRC-1, concentration 20): 48.9825% | % inhibition Apo pol 10' 40 (DRC-1, concentration 40): 54.7667% | % inhibition Apo pol 10' 80 (DRC-1, concentration 80): 55.4322% | % inhibition Apol 90' 2.5 (DRC-1, concentration 2.5): 24.6813% | % inhibition Apol 90' 5 (DRC-1, concentration 5): 31.9392% | % inhibition Apol 90' 10 (DRC-1, concentration 10): 42.478% | % inhibition Apol 90' 20 (DRC-1, concentration 20): 47.74% | % inhibition Apol 90' 40 (DRC-1, concentration 40): 54.1171% | % inhibition Apol 90' 80 (DRC-1, concentration 80): 56.5278% | % inhibition apPOL 180' 2.5 (DRC-1, concentration 2.5): 16.0854% | % inhibition apPOL 180' 5 (DRC-1, concentration 5): 24.5851% | % inhibition apPOL 180' 10 (DRC-1, concentration 10): 35.963% | % inhibition apPOL 180' 20 (DRC-1, concentration 20): 43.6778% | % inhibition apPOL 180' 40 (DRC-1, concentration 40): 53.1041% | % inhibition apPOL 180' 80 (DRC-1, concentration 80): 57.3534% | % inhibition Apo pol 5' (DRC-2, concentration 5): 24% | % inhibition Apo pol 5' (DRC-2, concentration 20): 27% | % inhibition Apo pol 5' (DRC-2, concentration 40): 30% | % inhibition Apo pol 5' (DRC-2, concentration 80): 27% | % inhibition Apol 40' (DRC-2, concentration 2.5): 24% | % inhibition Apol 40' (DRC-2, concentration 5): 30% | % inhibition Apol 40' (DRC-2, concentration 40): 42% | % inhibition ApPOL 90' (DRC-2, concentration 10): 38% | % inhibition ApPOL 90' (DRC-2, concentration 20): 42% | % inhibition apPOL 180' (DRC-2, concentration 20): 38% | % inhibition apPOL 180' (DRC-2, concentration 40): 42% | % inhibition Apo pol 5' 2.5 (DRC-2, concentration 2.5): 20% | % inhibition Apo pol 5' 5 (DRC-2, concentration 5): 24% | % inhibition Apo pol 5' 10 (DRC-2, concentration 10): 28% | % inhibition Apo pol 5' 20 (DRC-2, concentration 20): 27% | % inhibition Apo pol 5' 40 (DRC-2, concentration 40): 30% | % inhibition Apo pol 5' 80 (DRC-2, concentration 80): 27% | % inhibition Apol 40' 2.5 (DRC-2, concentration 2.5): 24% | % inhibition Apol 40' 5 (DRC-2, concentration 5): 30% | % inhibition Apol 40' 10 (DRC-2, concentration 10): 36% | % inhibition Apol 40' 20 (DRC-2, concentration 20): 39% | % inhibition Apol 40' 40 (DRC-2, concentration 40): 42% | % inhibition Apol 40' 80 (DRC-2, concentration 80): 41% | % inhibition ApPOL 90' 2.5 (DRC-2, concentration 2.5): 25% | % inhibition ApPOL 90' 5 (DRC-2, concentration 5): 31% | % inhibition ApPOL 90' 10 (DRC-2, concentration 10): 38% | % inhibition ApPOL 90' 20 (DRC-2, concentration 20): 42% | % inhibition ApPOL 90' 40 (DRC-2, concentration 40): 45% | % inhibition ApPOL 90' 80 (DRC-2, concentration 80): 47% | % inhibition apPOL 180' 2.5 (DRC-2, concentration 2.5): 18% | % inhibition apPOL 180' 5 (DRC-2, concentration 5): 26% | % inhibition apPOL 180' 10 (DRC-2, concentration 10): 34% | % inhibition apPOL 180' 20 (DRC-2, concentration 20): 38% | % inhibition apPOL 180' 40 (DRC-2, concentration 40): 42% | % inhibition apPOL 180' 80 (DRC-2, concentration 80): 46%

O=C1CSC2=NC3=C(CCc4ccccc43)C(c3cccs3)N12 (stereo not drawn) [Molecule 59, O=C1CSC2=NC3=C(C(N12)c1cccs1)CCc1c3cccc1]
DNA Pol [1]: 63 | DNA Pol [2]: 63 | % inhibition Apo pol 10' 2.5 (DRC-1, concentration 2.5): 4.043% | % inhibition Apo pol 10' 5 (DRC-1, concentration 5): 24.0896% | % inhibition Apo pol 10' 10 (DRC-1, concentration 10): 41.1279% | % inhibition Apo pol 10' 20 (DRC-1, concentration 20): 53.1812% | % inhibition Apo pol 10' 40 (DRC-1, concentration 40): 67.0288% | % inhibition Apo pol 10' 80 (DRC-1, concentration 80): 63.2791% | % inhibition Apol 90' 2.5 (DRC-1, concentration 2.5): -1.656% | % inhibition Apol 90' 5 (DRC-1, concentration 5): 10.7696% | % inhibition Apol 90' 10 (DRC-1, concentration 10): 22.0098% | % inhibition Apol 90' 20 (DRC-1, concentration 20): 35.5266% | % inhibition Apol 90' 40 (DRC-1, concentration 40): 60.0258% | % inhibition Apol 90' 80 (DRC-1, concentration 80): 67.4831% | % inhibition apPOL 180' 2.5 (DRC-1, concentration 2.5): -6.428% | % inhibition apPOL 180' 5 (DRC-1, concentration 5): -0.2424% | % inhibition apPOL 180' 10 (DRC-1, concentration 10): 9.04% | % inhibition apPOL 180' 20 (DRC-1, concentration 20): 18.673% | % inhibition apPOL 180' 40 (DRC-1, concentration 40): 46.5795% | % inhibition apPOL 180' 80 (DRC-1, concentration 80): 61.292% | % inhibition Apo pol 5' (DRC-2, concentration 10): 28% | % inhibition Apol 40' (DRC-2, concentration 10): 28% | % inhibition Apol 40' (DRC-2, concentration 40): 45% | % inhibition ApPOL 90' (DRC-2, concentration 40): 45% | % inhibition Apo pol 5' 2.5 (DRC-2, concentration 2.5): 3.73% | % inhibition Apo pol 5' 5 (DRC-2, concentration 5): 15% | % inhibition Apo pol 5' 10 (DRC-2, concentration 10): 28% | % inhibition Apo pol 5' 20 (DRC-2, concentration 20): 33% | % inhibition Apo pol 5' 40 (DRC-2, concentration 40): 31% | % inhibition Apo pol 5' 80 (DRC-2, concentration 80): 23% | % inhibition Apol 40' 2.5 (DRC-2, concentration 2.5): 3% | % inhibition Apol 40' 5 (DRC-2, concentration 5): 14% | % inhibition Apol 40' 10 (DRC-2, concentration 10): 28% | % inhibition Apol 40' 20 (DRC-2, concentration 20): 39% | % inhibition Apol 40' 40 (DRC-2, concentration 40): 45% | % inhibition Apol 40' 80 (DRC-2, concentration 80): 48% | % inhibition ApPOL 90' 2.5 (DRC-2, concentration 2.5): -1.13% | % inhibition ApPOL 90' 5 (DRC-2, concentration 5): 10% | % inhibition ApPOL 90' 10 (DRC-2, concentration 10): 22% | % inhibition ApPOL 90' 20 (DRC-2, concentration 20): 35% | % inhibition ApPOL 90' 40 (DRC-2, concentration 40): 45% | % inhibition ApPOL 90' 80 (DRC-2, concentration 80): 52% | % inhibition apPOL 180' 2.5 (DRC-2, concentration 2.5): -8% | % inhibition apPOL 180' 5 (DRC-2, concentration 5): 2.64% | % inhibition apPOL 180' 10 (DRC-2, concentration 10): 11% | % inhibition apPOL 180' 20 (DRC-2, concentration 20): 24% | % inhibition apPOL 180' 40 (DRC-2, concentration 40): 38% | % inhibition apPOL 180' 80 (DRC-2, concentration 80): 55%
